From US8158638B2, “Pyrazolopyrimidine derivative” (Daiichi Sankyo Company, Limited, priority 2006, dated 2012)
Read-outs that look alike come from different tables or passages of the source.

How the values were obtained:
[1] = system: human breast cancer cell line SK-BR-3; experiment: Cell growth inhibition assay (MTT), SK-BR-3; type: cell-based; conditions: read-out: GI50 value (50% growth inhibitory concentration)
Procedure: (§1) A cell growth inhibition assay was performed using two types of cells (human breast cancer cell line SK-BR-3 and human lung cancer cell line NCI-H460).
(§2) Cells of each type were suspended in a medium and seeded into a 96-well multi-well plate at 500 cells/150 μl/well. The test compound was dissolved in DMSO, and this was diluted with medium to prepare a sample solution (DMSO concentration: 0.5% or less). On the day following the seeding, 50 μL of DMSO-containing medium to which the test compound was not added (hereinafter called DMSO diluted solution; DMSO concentration: 0.5% or less) or the sample solution was added to the cells. An MTT assay was performed immediately after and 72 hours after adding the sample solution or the DMSO diluted solution to the cells. The MTT assay was performed as follows.
(§3) 5 mg/mL of an MTT (3-(4,5-dimethylthiazol-2-yl)-2,5-diphenyltetrazolium bromide) solution was added at 20 μL per well. Thereafter, the plate was incubated at 37° C. in 5% CO2 for four hours. The plate was centrifuged at 1200 rpm for five minutes, and then the culture supernatant was removed by suction using a dispenser. DMSO was added at 150 μL per well, and the generated formazan was dissolved. The plate was stirred using a plate mixer to uniformly color the respective wells. The absorbance of each well was measured using a plate reader at an OD of 540 nm with a reference of 660 nm.
(§4) T/C (%) for each concentration was determined by the following calculation formula and a dose-response curve was drawn to calculate the 50% growth inhibitory concentration (GI50 value), based on the assumption that the OD value measured immediately after adding the sample solution was S, the OD value measured 72 hours after adding the sample solution was T, and the OD value measured 72 hours after adding the DMSO diluted solution was C. T/C(%)=(T−S)/(C−S)×100

[2] = system: human lung cancer cell line NCI-H460; experiment: Cell growth inhibition assay (MTT), NCI-H460; type: cell-based; conditions: read-out: GI50 value (50% growth inhibitory concentration)
Procedure: as §1, §2, §3, §4

[3] = molecular target: T1, recombinant yeast Hsp90 protein (rHsp90) (Saccharomyces cerevisiae, UniProt P02829); experiment: Hsp90 ATPase assay; type: biochemical; conditions: rHsp90 100 μg/mL, ATP 100 μM, 37° C., two hours, BIOMOL GREEN; read-out: IC50 value (concentration for 50% inhibition of ATP activity)
T1 construct: made in house; host or cells: Escherichia coli
Procedure: An Hsp90 ATPase assay was performed using a recombinant yeast Hsp90 protein (hereinafter called rHsp90). Yeast Hsp90 DNA was cloned from a yeast genomic DNA library according to a conventional method. The cloned yeast Hsp90 DNA was incorporated into a plasmid for expression in Escherichia coli, and the plasmid was expressed in Escherichia coli to obtain rHsp90.
The test compound was dissolved in DMSO to 10 mM. The dissolved solution was diluted with DMSO to eight concentrations ranging in three-fold dilutions from 4 mM. Each diluted solution was further 10-fold diluted with an assay buffer (100 mM Tris, pH 7.4, 20 mM KCl, 6 mM MgCl2) (concentration of each test compound solution: 400 μM, 133 μM, 44.4 μM, 14.8 μM, 4.94 μM, 1.65 μM, 0.549 μM, 0.183 μM; DMSO concentration: 10%).
rHsp90 was dissolved in a TE buffer (20 mM Tris, pH 7.4, 1 mM EDTA) to a concentration of 2.531 mg/mL. The dissolved solution was diluted with assay buffer to 125 μg/mL and dispensed to a 96-well assay plate at 40 μL per well (final concentration: 100 μg/mL).
The test compound solution was dispensed at 5 μL per well, and then the solutions in the respective wells were mixed using a plate mixer. 100 mM ATP (Sigma, Catalog No. A-7699) was diluted with assay buffer to 1 mM and dispensed at 5 μL per well (final concentration: 100 μM). The solutions in the respective wells were mixed using a plate mixer, and then the assay plate was allowed to stand in an incubator set at 37° C. for two hours.
BIOMOL GREEN Reagent (BIOMOL, Catalog No. AK-111) was dispensed at 100 μL per well, and the reaction was terminated. The solutions in the respective wells were mixed by pipetting (three times), and then 34% sodium citrate was dispensed at 10 μL per well. The solutions in the respective wells were mixed by pipetting (three times), and then the assay plate was left to stand at room temperature for 10 minutes. The absorbance at 630 nm of each well was measured with a microplate reader.
The ratio of the absorbance of the test compound-added group to the absorbance of the test compound-free group (T/C value) was determined by the following calculation formula, based on the assumption that the absorbance of the well to which the test compound and rHsp90 were added was A, the absorbance of the well to which only rHsp90 was added was B, and the absorbance of the well to which neither the test compound nor rHsp90 was added was C. T/C=(A−C)/(B−C)
Further, the concentration for 50% inhibition of ATP activity (IC50 value) was calculated using GraphPad Prism 4 (GraphPad Software, Inc.).

[4] = Homo sapiens, SK-BR-3, MTT assay, 72 hours
[5] = Homo sapiens, NCI-H460, MTT assay, 72 hours

T1 sequence (P02829 whole entry): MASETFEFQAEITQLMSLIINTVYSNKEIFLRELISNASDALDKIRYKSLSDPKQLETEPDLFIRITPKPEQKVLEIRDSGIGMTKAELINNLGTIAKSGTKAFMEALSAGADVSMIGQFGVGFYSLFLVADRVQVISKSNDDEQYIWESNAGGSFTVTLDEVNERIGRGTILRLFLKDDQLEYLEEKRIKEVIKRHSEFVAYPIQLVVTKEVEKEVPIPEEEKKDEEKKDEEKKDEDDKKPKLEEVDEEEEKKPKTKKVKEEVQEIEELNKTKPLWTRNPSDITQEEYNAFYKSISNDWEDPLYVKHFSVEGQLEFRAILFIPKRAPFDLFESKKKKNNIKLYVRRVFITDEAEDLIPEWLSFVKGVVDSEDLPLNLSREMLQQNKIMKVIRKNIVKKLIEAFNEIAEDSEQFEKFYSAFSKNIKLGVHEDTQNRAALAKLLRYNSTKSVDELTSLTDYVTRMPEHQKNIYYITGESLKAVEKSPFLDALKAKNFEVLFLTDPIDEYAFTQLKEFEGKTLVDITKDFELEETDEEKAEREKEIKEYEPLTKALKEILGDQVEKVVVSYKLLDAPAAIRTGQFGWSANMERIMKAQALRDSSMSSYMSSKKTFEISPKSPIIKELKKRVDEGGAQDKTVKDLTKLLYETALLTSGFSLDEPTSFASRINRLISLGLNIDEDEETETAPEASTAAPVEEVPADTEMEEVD

Compound | GI50 [1, 4] | GI50 [2, 5] | IC50 [3] | GI50 ([1]; Homo sapiens, SK-BR-3, 72 h) | GI50 ([2]; Homo sapiens, NCI-H460, 72 h) | GI50 ([1]; SK-BR-3, MTT assay, 72 hours) | GI50 ([2]; NCI-H460, MTT assay, 72 hours)
COc1c(C)cnc(Cn2nc3c4c(nc(N)nc42)SCC(CC(=O)N2CCC2)=C3)c1C [Example 123, 8-(2-Azetidin-1-yl-2-oxoethyl)-2-[(4-methoxy-3,5-dimethylpyridin-2-yl)methyl]-2,7-dihydro-6-thia-1,2,3,5-tetraazabenzo[cd]azulen-4-amine] | 38 nM | 71 nM | 630 nM |  |  |  | 
COc1c(C)cnc(Cn2nc3c4c(nc(N)nc42)SCC(CCn2ccnc2)=C3)c1C [Example 137, 8-[2-(1H-Imidazol-1-yl)ethyl]-2-[(4-methoxy-3,5-dimethylpyridin-2-yl)methyl]-2,7-dihydro-6-thia-1,2,3,5-tetraazabenzo[cd]azulen-4-amine] |  |  | 950 nM | 67 nM | 200 nM |  | 
COc1c(C)cnc(Cn2nc3c4c(nc(N)nc42)SCC(CCN2CCCC2)=C3)c1C [Example 141, 2-[(4-Methoxy-3,5-dimethylpyridin-2-yl)methyl]-8-(2-pyrrolidin-1-ylethyl)-2,7-dihydro-6-thia-1,2,3,5-tetraazabenzo[cd]azulen-4-amine] |  |  | 1000 nM | 41 nM | 260 nM |  | 
COc1c(C)cnc(Cn2nc3c4c(nc(N)nc42)SCC(CCN2CCCCC2)=C3)c1C [Example 145, 2-[(4-Methoxy-3,5-dimethylpyridin-2-yl)methyl]-8-(2-piperidin-1-ylethyl)-2,7-dihydro-6-thia-1,2,3,5-tetraazabenzo[cd]azulen-4-amine] |  |  | 890 nM | 19 nM | 45 nM |  | 
COc1c(C)cnc(Cn2nc3c4c(nc(N)nc42)SC=C3)c1C [Example 151, 2-[(4-Methoxy-3,5-dimethylpyridin-2-yl)methyl]-2H-6-thia-1,2,3,5-tetraazaacenaphthylen-4-amine] |  |  | 890 nM | 48 nM | 110 nM |  | 
Nc1nc2c3c(nn(Cc4cc5ccccc5cn4)c3n1)CCS2 [Example 153] | 2600 nM | 5900 nM | 1900 nM |  |  |  | 
COc1ccnc(Cn2nc3c4c(nc(N)nc42)SCC3)c1C [Example 164, 2-[(4-Methoxy-3-methylpyridin-2-yl)methyl]-7,8-dihydro-2H-6-thia-1,2,3,5-tetraazaacenaphthylen-4-amine] | 410 nM | 760 nM | 970 nM |  |  |  | 
Cn1c(=O)c(Cn2nc3c4c(nc(N)nc42)SCC3)cc2ccccc21 [Example 165, 3-[(4-Amino-7,8-dihydro-2H-6-thia-1,2,3,5-tetraazaacenaphthylen-2-yl)methyl]-1-methylquinolin-2(1H)-one] | 6800 nM | 16000 nM | 2000 nM |  |  |  | 
Nc1nc2c3c(nn(Cc4ccc5c(c4)OCO5)c3n1)CCS2 [Example 167, 2-(1,3-Benzodioxol-5-ylmethyl)-7,8-dihydro-2H-6-thia-1,2,3,5-tetraazaacenaphthylen-4-amine] | 3300 nM | 7300 nM | 5400 nM |  |  |  | 
COc1c(C)cnc(Cn2nc3c4c(nc(N)nc42)SC(C(=O)Nc2nccs2)C3)c1C (stereo not drawn) [Example 191, 4-Amino-2-[(4-methoxy-3,5-dimethylpyridin-2-yl)methyl]-N-(1,3-thiazol-2-yl)-7,8-dihydro-2H-6-thia-1,2,3,5-tetraazaacenaphthylene-7-carboxamide] | 20 nM | 57 nM | 1500 nM |  |  |  | 
COc1c(C)cnc(Cn2nc3c4c(nc(N)nc42)SC(C(=O)Nc2ncc(C)s2)C3)c1C (stereo not drawn) [Example 194, 4-Amino-2-[(4-methoxy-3,5-dimethylpyridin-2-yl)methyl]-N-(5-methyl-1,3-thiazol-2-yl)-7,8-dihydro-2H-6-thia-1,2,3,5-tetraazaacenaphthylene-7-carboxamide] | 17 nM | 37 nM | 1800 nM |  |  |  | 
COc1c(C)cnc(Cn2nc3c4c(nc(N)nc42)SCC(C(=O)N2CCC(F)(F)C2)=C3)c1C [Example 218, 8-[(3,3-Difluoropyrrolidin-1-yl)carbonyl]-2-[(4-methoxy-3,5-dimethylpyridin-2-yl)methyl]-2,7-dihydro-6-thia-1,2,3,5-tetraazabenzo[cd]azulen-4-amine] |  |  | 2300 nM | 75 nM | 160 nM |  | 
COc1c(C)cnc(Cn2nc3c4c(nc(N)nc42)SCC(c2cccnc2)=C3)c1C [Example 223, 2-[(4-Methoxy-3,5-dimethylpyridin-2-yl)methyl]-8-pyridin-3-yl-2,7-dihydro-6-thia-1,2,3,5-tetraazabenzo[cd]azulen-4-amine] |  |  | 1100 nM | 140 nM | 250 nM |  | 
N^8-(S)-Cyclopropyl-2-[(4-methoxy-3,5-dimethylpyridin-2-yl)methyl]-2,7,8,9-tetrahydro-6-thia-1,2,3,5-tetraazabenzo[cd]azulene-4,8-diamine [Example 181] |  |  | 3100 nM |  |  | 45 nM | 76 nM
